Data published in the supplement of paper PMC10627819.

How the values were obtained:
Experiment in all cases: Bliss interaction score (quartile over a dose matrix) (fitness difference); higher = more antagonism (negative = synergy)
B. subtilis 168 = test system: B. subtilis 168
Method in brief: (§1)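 Fitness was defined as normalised growth: OD595 at the start of stationary phase divided by the plate's robust no-drug mean and capped at 1. Single-drug fitness was inferred from combination measurements. The Bliss score is observed fitness minus the product of the single-drug values, summarised by quartiles across technical, biological and donor/recipient replicates.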

S. aureus DSM 20231 = test system: S. aureus DSM 20231
Method in brief: as §1

S. aureus Newman = test system: S. aureus Newman
Method in brief: as §1

S. pneumoniae D39V = test system: S. pneumoniae D39V
Method in brief: as §1
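Note: first quartile when negative (synergy) and third quartile when positive (antagonism).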

| SMILES | Bliss interaction score (B. subtilis 168) | Bliss interaction score (S. aureus DSM 20231) | Bliss interaction score (S. aureus Newman) | Bliss interaction score (S. pneumoniae D39V) |
| --- | --- | --- | --- | --- |
| CC[C@H]1OC(=O)[C@H](C)C(=O)[C@H](C)[C@@H](O[C@@H]2O[C@H](C)C[C@H](N(C)C)[C@H]2O)[C@](C)(OC)C[C@@H](C)C(=O)[C@H](C)[C@H]2N(CCCCn3cnc(-c4cccnc4)c3)C(=O)O[C@]12C [Telithromycin] + CC1=C\[C@@H](O)CC(=O)Cc2nc(co2)C(=O)N2CCC=C2C(=O)O[C@H](C(C)C)[C@H](C)/C=C/C(=O)NC\C=C\1 [Virginiamycin M1] | -0.0239 | -0.0529 | -0.0314 | -0.037 |
| CC[C@H]1OC(=O)[C@H](C)[C@@H](O[C@H]2C[C@@](C)(OC)[C@@H](O)[C@H](C)O2)[C@H](C)[C@@H](O[C@@H]2O[C@H](C)C[C@H](N(C)C)[C@H]2O)[C@](C)(O)C[C@@H](C)CN(C)[C@H](C)[C@@H](O)[C@]1(C)O [Azithromycin] + C[C@@H](O)[C@H]1C(=O)N2C(C(=O)O)=C(SCCNC=N)C[C@H]12 [Imipenem] | 0.105 | -0.0324 | -0.0196 | 0.0485 |
| O=C(O)[C@H]1/C(=C/CO)O[C@@H]2CC(=O)N21 [Clavulanic] + CO[C@H]1/C=C/O[C@@]2(C)Oc3c(C)c(O)c4c(O)c(c(/C=N/N5CCN(C)CC5)c(O)c4c3C2=O)NC(=O)/C(C)=C\C=C\[C@H](C)[C@H](O)[C@@H](C)[C@@H](O)[C@@H](C)[C@H](OC(C)=O)[C@@H]1C [Rifampicin] | 0.0612 | 0.112 | -0.0368 | -0.0766 |
| O=C(O)[C@H]1/C(=C/CO)O[C@@H]2CC(=O)N21 [Clavulanic] + CO[C@@]12[C@H](COC(N)=O)C3=C(C(=O)C(C)=C(N)C3=O)N1C[C@@H]1N[C@@H]12 [MitomycinC] | -0.113 | -0.0996 | 0.129 | -0.0718 |
| CC[C@H]1OC(=O)[C@H](C)[C@@H](O[C@H]2C[C@@](C)(OC)[C@@H](O)[C@H](C)O2)[C@H](C)[C@@H](O[C@@H]2O[C@H](C)C[C@H](N(C)C)[C@H]2O)[C@](C)(O)C[C@@H](C)CN(C)[C@H](C)[C@@H](O)[C@]1(C)O [Azithromycin] + CN(C)[C@@H]1C(O)=C(C(N)=O)C(=O)[C@@]2(O)C(O)=C3C(=O)c4c(O)ccc(Cl)c4[C@@](C)(O)[C@H]3C[C@@H]12 [Clortetracycline] | -0.344 | -0.243 | -0.192 | -0.084 |
| CC1=C(C(=O)O)N2C(=O)[C@@H](NC(=O)[C@H](N)c3ccccc3)[C@H]2SC1 [Cephalexin] + C[C@H]1COc2c(N3CCN(C)CC3)c(F)cc3c(=O)c(C(=O)O)cn1c23 [Levofloxacin] | -0.0126 | -0.037 | 0.0499 | -0.152 |
| CN(N=O)C(=O)N[C@@H](C=O)[C@@H](O)[C@H](O)[C@H](O)CO [Streptozotocin] + Cc1cc(NS(=O)(=O)c2ccc(N)cc2)no1 [Sulfamethoxazol] | -0.0496 | -0.0487 | 0.0639 | -0.0217 |
| Cc1onc(-c2ccccc2)c1C(=O)N[C@@H]1C(=O)N2[C@@H]1SC(C)(C)[C@@H]2C(=O)O [Oxacillin] + CC1(C)S[C@@H]2[C@H](NC(=O)Cc3ccccc3)C(=O)N2[C@H]1C(=O)O [PenicillinG] | -0.0214 | 0.0796 | -0.0558 | -0.235 |
| Clc1ccc(COC(Cn2ccnc2)c2ccc(Cl)cc2Cl)c(Cl)c1 (centres undefined) [Miconazole] + CN[C@H](CC(C)C)C(=O)N[C@H]1C(=O)N[C@@H](CC(N)=O)C(=O)N[C@H]2C(=O)N[C@H]3C(=O)N[C@H](C(=O)N[C@H](C(=O)O)c4cc(O)cc(O)c4-c4cc3ccc4O)[C@H](O[C@H]3C[C@](C)(N)[C@@H](O)[C@H](C)O3)c3ccc(c(Cl)c3)Oc3cc2cc(c3O[C@@H]2O[C@H](CO)[C@@H](O)[C@H](O)[C@H]2O[C@H]2C[C@](C)(NCc3ccc(-c4ccc(Cl)cc4)cc3)[C@@H](O)[C@H](C)O2)Oc2ccc(cc2Cl)[C@H]1O [Oritavancin] | -0.0225 | -0.0286 | -0.0754 | -0.0639 |
| O=C(O)[C@H]1/C(=C/CO)O[C@@H]2CC(=O)N21 [Clavulanic] + Cc1onc(-c2ccccc2)c1C(=O)N[C@@H]1C(=O)N2[C@@H]1SC(C)(C)[C@@H]2C(=O)O [Oxacillin] | 0.0555 | 0.0346 | 0.0727 | -0.051 |
| CC[C@H]1OC(=O)[C@H](C)[C@@H](O[C@H]2C[C@@](C)(OC)[C@@H](O)[C@H](C)O2)[C@H](C)[C@@H](O[C@@H]2O[C@H](C)C[C@H](N(C)C)[C@H]2O)[C@](C)(O)C[C@@H](C)CN(C)[C@H](C)[C@@H](O)[C@]1(C)O [Azithromycin] + CC[C@H]1OC(=O)[C@H](C)[C@@H](O[C@H]2C[C@@](C)(OC)[C@@H](O)[C@H](C)O2)[C@H](C)[C@@H](O[C@@H]2O[C@H](C)C[C@H](N(C)C)[C@H]2O)[C@](C)(OC)C[C@@H](C)C(=O)[C@H](C)[C@@H](O)[C@]1(C)O [Clarithromycin] | -0.0578 | -0.107 | -0.0536 | -0.0473 |
| Cn1c2cccc(=O)c-2nc2ccccc21 [Pyocyanin] + Oc1cc(Cl)ccc1Oc1ccc(Cl)cc1Cl [Triclosan] | -0.0279 | 0.037 | 0.0494 | -0.0544 |
| O=C(O)[C@H]1/C(=C/CO)O[C@@H]2CC(=O)N21 [Clavulanic] + CO[C@@H]1[C@@H](OC(N)=O)[C@@H](O)[C@H](Oc2ccc3c(O)c(NC(=O)c4ccc(O)c(CC=C(C)C)c4)c(=O)oc3c2C)OC1(C)C [Novobiocin] | 0.0384 | 0.116 | 0.177 | -0.0784 |
| CC1=C(C(=O)O)N2C(=O)[C@@H](NC(=O)[C@H](N)c3ccccc3)[C@H]2SC1 [Cephalexin] + CC(=O)O[C@H]1C[C@@]2(C)[C@@H](C[C@@H](O)[C@H]3[C@@]4(C)CC[C@@H](O)[C@@H](C)[C@@H]4CC[C@@]32C)/C1=C(\CCC=C(C)C)C(=O)O [Fusidic acid] | 0.0683 | 0.0436 | 0.0547 | 0.143 |
| Clc1ccc(COC(Cn2ccnc2)c2ccc(Cl)cc2Cl)c(Cl)c1 (centres undefined) [Miconazole] + CC1(C)S[C@@H]2[C@H](NC(=O)Cc3ccccc3)C(=O)N2[C@H]1C(=O)O [PenicillinG] | 0.0707 | 0.0525 | -0.0331 | 0.106 |
| O=C(O)[C@H]1/C(=C/CO)O[C@@H]2CC(=O)N21 [Clavulanic] + C[C@@H](O)[C@H]1C(=O)N2C(C(=O)O)=C(SCCNC=N)C[C@H]12 [Imipenem] | 0.108 | 0.094 | -0.0736 | 0.0559 |

| SMILES | Bliss interaction score (B. subtilis 168) | Bliss interaction score (S. aureus DSM 20231) | Bliss interaction score (S. aureus Newman) | Bliss interaction score (S. pneumoniae D39V) |
| --- | --- | --- | --- | --- |
| C[n+]1ccc(-c2cc[n+](C)cc2)cc1 [Paraquat] + Oc1cc(Cl)ccc1Oc1ccc(Cl)cc1Cl [Triclosan] | -0.188 | 0.0434 | -0.0576 | 0.058 |
| Oc1cc(Cl)ccc1Oc1ccc(Cl)cc1Cl [Triclosan] + CC1=C\[C@@H](O)CC(=O)Cc2nc(co2)C(=O)N2CCC=C2C(=O)O[C@H](C(C)C)[C@H](C)/C=C/C(=O)NC\C=C\1 [Virginiamycin M1] | 0.0973 | 0.108 | 0.034 | 0.0386 |
| C[n+]1ccc(-c2cc[n+](C)cc2)cc1 [Paraquat] + CC1(C)S[C@@H]2[C@H](NC(=O)Cc3ccccc3)C(=O)N2[C@H]1C(=O)O [PenicillinG] | -0.0267 | -0.0239 | 0.0437 | -0.0591 |
| CC[C@H]1OC(=O)[C@H](C)C(=O)[C@H](C)[C@@H](O[C@@H]2O[C@H](C)C[C@H](N(C)C)[C@H]2O)[C@](C)(OC)C[C@@H](C)C(=O)[C@H](C)[C@H]2N(CCCCn3cnc(-c4cccnc4)c3)C(=O)O[C@]12C [Telithromycin] + COc1cc(Cc2cnc(N)nc2N)cc(OC)c1OC [Trimethoprim] | -0.243 | 0.0276 | 0.0595 | 0.0323 |
| CC1=C(C(=O)O)N2C(=O)[C@@H](NC(=O)[C@H](N)c3ccccc3)[C@H]2SC1 [Cephalexin] + O=C(O[C@@H]1Cc2c(O)cc(O)cc2O[C@@H]1c1cc(O)c(O)c(O)c1)c1cc(O)c(O)c(O)c1 [EGCG] | -0.0668 | -0.071 | -0.115 | 0.0582 |
| CC1=C(C(=O)O)N2C(=O)[C@@H](NC(=O)[C@H](N)c3ccccc3)[C@H]2SC1 [Cephalexin] + CO[C@@]12[C@H](COC(N)=O)C3=C(C(=O)C(C)=C(N)C3=O)N1C[C@@H]1N[C@@H]12 [MitomycinC] | -0.0415 | 0.0608 | 0.0613 | -0.0789 |
| O=C(O)[C@H]1/C(=C/CO)O[C@@H]2CC(=O)N21 [Clavulanic] + CCN(CC)CCOC(=O)c1ccc(N)cc1 [Procaine] | -0.0363 | 0.0977 | -0.0729 | 0.0863 |
| Clc1ccc(COC(Cn2ccnc2)c2ccc(Cl)cc2Cl)c(Cl)c1 (centres undefined) [Miconazole] + CO[C@@H]1[C@@H](OC(N)=O)[C@@H](O)[C@H](Oc2ccc3c(O)c(NC(=O)c4ccc(O)c(CC=C(C)C)c4)c(=O)oc3c2C)OC1(C)C [Novobiocin] | 0.0735 | 0.0483 | 0.0415 | 0.121 |
| CC[C@H]1OC(=O)[C@H](C)[C@@H](O[C@H]2C[C@@](C)(OC)[C@@H](O)[C@H](C)O2)[C@H](C)[C@@H](O[C@@H]2O[C@H](C)C[C@H](N(C)C)[C@H]2O)[C@](C)(O)C[C@@H](C)CN(C)[C@H](C)[C@@H](O)[C@]1(C)O [Azithromycin] + C1=CC(=CC(=C1)Cl)NN=C(C#N)C#N [CCCP] | -0.104 | -0.0316 | -0.0482 | -0.0621 |
| O=C(O)[C@H]1/C(=C/CO)O[C@@H]2CC(=O)N21 [Clavulanic] + CN1C2=CC=CC=C2N=C3C1=CC=CC3=O [Pyocyanin] | 0.0338 | -0.0632 | 0.0849 | 0.0705 |
| Cn1c2cccc(=O)c-2nc2ccccc21 [Pyocyanin] + CC[C@H]1OC(=O)[C@H](C)C(=O)[C@H](C)[C@@H](O[C@@H]2O[C@H](C)C[C@H](N(C)C)[C@H]2O)[C@](C)(OC)C[C@@H](C)C(=O)[C@H](C)[C@H]2N(CCCCn3cnc(-c4cccnc4)c3)C(=O)O[C@]12C [Telithromycin] | -0.0145 | 0.0313 | -0.0591 | -0.0564 |
| Clc1ccc(COC(Cn2ccnc2)c2ccc(Cl)cc2Cl)c(Cl)c1 (centres undefined) [Miconazole] + CC[C@H]1OC(=O)[C@H](C)C(=O)[C@H](C)[C@@H](O[C@@H]2O[C@H](C)C[C@H](N(C)C)[C@H]2O)[C@](C)(OC)C[C@@H](C)C(=O)[C@H](C)[C@H]2N(CCCCn3cnc(-c4cccnc4)c3)C(=O)O[C@]12C [Telithromycin] | 0.0586 | 0.04 | 0.0508 | 0.104 |
| O=C(O)[C@H]1/C(=C/CO)O[C@@H]2CC(=O)N21 [Clavulanic] + CN[C@@H]1[C@H](O[C@H]2[C@H](O[C@H]3[C@H](O)[C@@H](O)[C@H](N=C(N)N)[C@@H](O)[C@@H]3N=C(N)N)O[C@@H](C)[C@]2(O)C=O)O[C@@H](CO)[C@H](O)[C@H]1O [Streptomycin] | 0.0954 | – | 0.218 | 0.0425 |
| O=C(O)[C@H]1/C(=C/CO)O[C@@H]2CC(=O)N21 [Clavulanic] + C/C(=C\C(=O)OCCCCCCCCC(=O)O)C[C@@H]1OC[C@H](C[C@@H]2O[C@H]2[C@@H](C)[C@H](C)O)[C@@H](O)[C@H]1O [Pseudomonic acid] | -0.0513 | – | – | -0.0849 |
| Cc1cc(NS(=O)(=O)c2ccc(N)cc2)no1 [Sulfamethoxazol] + CCCSc1nc(N[C@@H]2C[C@H]2c2ccc(F)c(F)c2)c2nnn([C@@H]3C[C@H](OCCO)[C@@H](O)[C@H]3O)c2n1 [Ticagrelor] | – | 0.254 | – | – |
| CC[C@H]1OC(=O)[C@H](C)[C@@H](O[C@H]2C[C@@](C)(OC)[C@@H](O)[C@H](C)O2)[C@H](C)[C@@H](O[C@@H]2O[C@H](C)C[C@H](N(C)C)[C@H]2O)[C@](C)(O)C[C@@H](C)CN(C)[C@H](C)[C@@H](O)[C@]1(C)O [Azithromycin] + O=C(O)c1cc(-c2ccc(F)cc2F)ccc1O [Diflunisal] | – | -0.146 | – | – |
